Laboratory results reported in ChEMBL document CHEMBL1201862, “PubChem BioAssay data set” (2004).
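48-hour exposure; five concentrations; linearly interpolated endpoints. Here, GI50 denotes the concentration required for 50% inhibition of growth.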 Calls of active or inactive are those of the source. No stated cut-off is given here; in the data, active = GI50 up to about 1.1 µM and inactive = higher.

What was measured:
Test in all cases: NCI anticancer screen, dose series, 48 h
[1] = system: SF-539
[2] = system: LOX IMVI
[3] = system: OVCAR-8
[4] = system: T47D
[5] = system: CAKI-1
[6] = system: DU-145
[7] = system: HOP-62
[8] = system: MDA-MB-435
[9] = system: IGROV-1
[10] = system: MCF7
[11] = system: OVCAR-3
[12] = system: Hs-578T
[13] = system: NCI-H522
[14] = system: KM12
[15] = system: HCT-15
[16] = system: HCC 2998
[17] = system: MDA-MB-231
[18] = system: HT-29
[19] = system: SK-MEL-28
[20] = system: UO-31
[21] = system: UACC-257
[22] = system: SK-MEL-2
[23] = system: SK-MEL-5
[24] = system: NCI-H226
[25] = system: SNB-75
[26] = system: K562
[27] = system: NCI/ADR-RES
[28] = system: SR
[29] = system: SNB-19
[30] = system: OVCAR-4
[31] = system: NCI-H460
[32] = system: OVCAR-5
[33] = system: MOLT-4
[34] = system: Malme-3M
[35] = system: ACHN
[36] = system: NCI-H23
[37] = system: SN12C
[38] = system: EKVX
[39] = system: 786-0
[40] = system: A549
[41] = system: RXF 393
[42] = system: MDA-N
[43] = system: SW-620
[44] = system: HCT-116
[45] = system: CCRF-CEM
[46] = system: COLO 205
[47] = system: U-251
[48] = system: M14
[49] = system: SF-268
[50] = system: TK-10
[51] = system: HOP-92
[52] = system: HL-60

## COc1nn(Cc2ccccc2F)c2ccc([N+](=O)[O-])cc12
[1]
  GI50: 41.1 µM (inactive)
[2]
  GI50: > 100 µM (inactive)
[3]
  GI50: > 100 µM (inactive)
[4]
  GI50: > 100 µM (inactive)
[5]
  GI50: > 100 µM (inactive)
[6]
  GI50: > 100 µM (inactive)
[7]
  GI50: 18.9 µM (inactive)
[8]
  GI50: 2.74 µM (inactive)
[9]
  GI50: > 100 µM (inactive)
[10]
  GI50: > 100 µM (inactive)
[11]
  GI50: > 100 µM (inactive)
[12]
  GI50: > 45.9 µM (inactive)
[13]
  GI50: > 30 µM (inactive)
[14]
  GI50: > 100 µM (inactive)
[15]
  GI50: > 100 µM
[16]
  GI50: > 100 µM (inactive)
[17]
  GI50: 12.1 µM (inactive)
[18]
  GI50: > 100 µM (inactive)
[19]
  GI50: > 100 µM (inactive)
[20]
  GI50: > 100 µM (inactive)
[21]
  GI50: > 50.6 µM (inactive)
[22]
  GI50: 98.9 µM (inactive)
[23]
  GI50: > 100 µM (inactive)
[24]
  GI50: > 100 µM (inactive)
[25]
  GI50: > 100 µM (inactive)
[26]
  GI50: 2.91 µM (inactive)
[27]
  GI50: > 100 µM (inactive)
[28]
  GI50: > 100 µM (inactive)
[29]
  GI50: > 100 µM (inactive)
[30]
  GI50: > 100 µM (inactive)
[31]
  GI50: > 100 µM (inactive)
[32]
  GI50: > 100 µM (inactive)
[33]
  GI50: > 20 µM (inactive)
[34]
  GI50: > 85.3 µM (inactive)
[35]
  GI50: > 100 µM (inactive)
[36]
  GI50: > 100 µM (inactive)
[37]
  GI50: > 100 µM (inactive)
[38]
  GI50: > 100 µM (inactive)
[39]
  GI50: > 100 µM (inactive)
[40]
  GI50: > 100 µM (inactive)
[41]
  GI50: 7.48 µM (inactive)
[42]
  GI50: 3.4 µM (inactive)
[43]
  GI50: > 100 µM (inactive)
[44]
  GI50: > 100 µM (inactive)
[45]
  GI50: > 100 µM (inactive)
[46]
  GI50: > 100 µM (inactive)
[47]
  GI50: > 100 µM (inactive)
[48]
  GI50: > 100 µM (inactive)
[49]
  GI50: > 100 µM (inactive)
[50]
  GI50: > 100 µM (inactive)
[51]
  GI50: 90.6 µM (inactive)
[52]
  GI50: 4.28 µM (inactive)
